The text below walks through data of BindingDB's records for patent US9212173 (Genentech, 2015).

This assay addresses Leucine-rich repeat serine/threonine-protein kinase 2 (Homo sapiens, UniProt Q5S007). The assay is described as follows: Lanthascreen Binding Assay. Here is the method: This assay was used to determine a compound's potency in inhibiting activity of LRRK2 by determining, Kiapp, IC50, or percent inhibition values. In 384 well proxiplates F black, shallow well plates LRRK2, Eu-anti-GST-antibody, Alexa Fluor Kinase tracer 236 and test compound were incubated together.Binding of the Alexa Fluor tracer to a kinase is detected by addition of a Eu-labeled anti-GST antibody. Binding of the tracer and antibody to a kinase results in a high degree of FRET, whereas displacement of the tracer with a kinase inhibitor results in a loss of FRET. Assay conditions and materials used were as follows: Final Assay Conditions: GST-LRRK2 G2019S 10 nM Eu-anti-GST-antibody 2 nM Kinase tracer 236 8.5 nM Kinase reaction time: 1 hour Temperature: ambient Total volume: 15 ul DMSO 1% Materials: 384 well proxiplates F black shallow cat# 6008260 well Perkin Elmer Kinase: LRRK2 G2019S, Invitrogen cat # PV4882(LOT 567054A).

Chain of Leucine-rich repeat serine/threonine-protein kinase 2 (Q5S007 whole entry): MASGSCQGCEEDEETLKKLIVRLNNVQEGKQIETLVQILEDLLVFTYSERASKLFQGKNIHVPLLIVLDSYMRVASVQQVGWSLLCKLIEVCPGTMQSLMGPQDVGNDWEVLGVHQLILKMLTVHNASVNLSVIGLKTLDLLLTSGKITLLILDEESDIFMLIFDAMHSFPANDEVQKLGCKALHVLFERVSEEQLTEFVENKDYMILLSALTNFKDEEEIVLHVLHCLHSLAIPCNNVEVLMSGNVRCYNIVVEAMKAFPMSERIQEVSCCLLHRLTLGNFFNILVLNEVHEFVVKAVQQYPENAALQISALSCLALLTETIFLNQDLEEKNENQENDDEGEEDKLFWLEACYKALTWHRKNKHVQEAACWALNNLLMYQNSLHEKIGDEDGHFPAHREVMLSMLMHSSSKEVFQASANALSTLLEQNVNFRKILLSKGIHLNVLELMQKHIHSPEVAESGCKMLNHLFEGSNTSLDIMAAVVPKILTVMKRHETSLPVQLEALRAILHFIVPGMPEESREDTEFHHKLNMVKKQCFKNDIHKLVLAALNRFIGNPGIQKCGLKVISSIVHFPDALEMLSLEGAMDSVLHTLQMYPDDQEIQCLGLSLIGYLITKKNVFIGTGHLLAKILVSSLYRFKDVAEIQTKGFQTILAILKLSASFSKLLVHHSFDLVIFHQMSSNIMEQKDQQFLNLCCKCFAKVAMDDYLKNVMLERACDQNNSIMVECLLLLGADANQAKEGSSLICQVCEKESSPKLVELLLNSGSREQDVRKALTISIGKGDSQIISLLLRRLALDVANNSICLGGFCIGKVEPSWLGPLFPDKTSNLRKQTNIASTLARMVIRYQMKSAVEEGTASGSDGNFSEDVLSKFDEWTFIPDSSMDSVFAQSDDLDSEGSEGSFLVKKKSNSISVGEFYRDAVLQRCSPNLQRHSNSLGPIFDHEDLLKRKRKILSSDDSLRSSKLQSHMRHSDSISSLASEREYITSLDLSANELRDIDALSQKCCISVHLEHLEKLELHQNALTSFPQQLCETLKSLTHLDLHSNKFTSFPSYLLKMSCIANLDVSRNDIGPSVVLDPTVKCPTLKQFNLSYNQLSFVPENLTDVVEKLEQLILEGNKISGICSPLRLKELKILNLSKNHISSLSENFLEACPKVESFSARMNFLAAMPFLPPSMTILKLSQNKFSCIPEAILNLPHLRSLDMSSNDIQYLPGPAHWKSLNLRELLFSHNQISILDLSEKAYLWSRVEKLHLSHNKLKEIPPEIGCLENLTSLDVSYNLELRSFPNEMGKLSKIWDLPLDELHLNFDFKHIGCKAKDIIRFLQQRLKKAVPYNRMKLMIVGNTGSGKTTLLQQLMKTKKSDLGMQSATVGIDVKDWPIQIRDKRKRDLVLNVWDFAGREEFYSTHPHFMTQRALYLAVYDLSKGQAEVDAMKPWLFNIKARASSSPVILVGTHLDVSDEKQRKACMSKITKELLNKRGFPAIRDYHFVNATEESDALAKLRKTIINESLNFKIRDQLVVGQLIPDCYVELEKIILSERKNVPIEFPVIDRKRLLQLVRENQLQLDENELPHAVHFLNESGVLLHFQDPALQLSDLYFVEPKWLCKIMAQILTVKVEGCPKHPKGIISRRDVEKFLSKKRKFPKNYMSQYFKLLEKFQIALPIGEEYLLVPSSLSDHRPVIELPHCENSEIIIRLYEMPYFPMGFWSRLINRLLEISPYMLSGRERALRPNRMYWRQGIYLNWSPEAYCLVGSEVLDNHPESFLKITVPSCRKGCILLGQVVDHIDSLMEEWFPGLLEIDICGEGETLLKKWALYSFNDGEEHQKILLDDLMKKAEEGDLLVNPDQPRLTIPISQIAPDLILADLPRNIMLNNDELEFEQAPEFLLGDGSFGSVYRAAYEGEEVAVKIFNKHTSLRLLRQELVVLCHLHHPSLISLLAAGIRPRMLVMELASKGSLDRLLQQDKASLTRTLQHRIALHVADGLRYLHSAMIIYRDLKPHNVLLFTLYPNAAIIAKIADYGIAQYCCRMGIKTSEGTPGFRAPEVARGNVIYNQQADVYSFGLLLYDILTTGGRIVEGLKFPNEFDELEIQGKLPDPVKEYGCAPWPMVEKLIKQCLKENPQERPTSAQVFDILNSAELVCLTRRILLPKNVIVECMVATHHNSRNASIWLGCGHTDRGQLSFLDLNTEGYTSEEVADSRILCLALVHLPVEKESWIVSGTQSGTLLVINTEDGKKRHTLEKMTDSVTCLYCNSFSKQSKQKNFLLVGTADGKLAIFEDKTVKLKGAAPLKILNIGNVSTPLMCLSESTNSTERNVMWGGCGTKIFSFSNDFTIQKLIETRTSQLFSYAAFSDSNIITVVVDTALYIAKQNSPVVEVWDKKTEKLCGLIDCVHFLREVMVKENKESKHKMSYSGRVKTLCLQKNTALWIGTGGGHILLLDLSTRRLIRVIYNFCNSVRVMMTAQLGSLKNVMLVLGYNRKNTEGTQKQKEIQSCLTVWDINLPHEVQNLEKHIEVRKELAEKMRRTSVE

Take `CCn1cnnc1C(C)(C)n1cc(Nc2ncc(C(F)(F)F)c(NC)n2)c(Cl)n1` [US9212173, 11]: the Ki (in general, a dissociation constant, usually derived from enzyme kinetics or from competition with a known ligand) was 155 nM. As for `CCNc1nc(Nc2cn(C(C)(C)c3ncn(CC)n3)nc2Cl)ncc1C(F)(F)F` [US9212173, 14], the figure is 1.1 nM.
